From ChEMBL document CHEMBL1201862, “PubChem BioAssay data set” (2004)
Structures can show the parent of a compound that is named as a salt. Calls of active or inactive are those of the source.

How the values were obtained:
[1] = cell lysis of Cryptococcus neoformans, alamar blue – dry powder, set 3, mechanism study for C. neoformans antifungal project, dose response (AID 743298); format: functional, organism-based
[2] = biological target: Sphingosine 1-phosphate receptor 2 (Homo sapiens, UniProt O95136); experiment: Dose Response Cell Based Assay for Agonists of the S1P2 Receptor. [Related pubchem assays: 729, 736, 843 ]; format: functional
[3] = biological target: T1, Ubiquitin-conjugating enzyme E2 N (Homo sapiens, UniProt P61088); format: functional
T1 sequence (P61088 whole entry): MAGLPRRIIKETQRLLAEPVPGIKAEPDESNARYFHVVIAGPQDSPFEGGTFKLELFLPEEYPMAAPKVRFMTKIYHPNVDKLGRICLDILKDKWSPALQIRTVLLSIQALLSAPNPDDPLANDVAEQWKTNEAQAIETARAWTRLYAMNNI

[4] = biological target: T2, Bcl-2-related protein A1 (Mus musculus, UniProt Q07440); format: functional;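 also: confirmatory dose–response counterscreen on Bfl-1, used to check hits from a UBC13 polyubiquitin inhibitor campaign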
T2 sequence (Q07440 whole entry): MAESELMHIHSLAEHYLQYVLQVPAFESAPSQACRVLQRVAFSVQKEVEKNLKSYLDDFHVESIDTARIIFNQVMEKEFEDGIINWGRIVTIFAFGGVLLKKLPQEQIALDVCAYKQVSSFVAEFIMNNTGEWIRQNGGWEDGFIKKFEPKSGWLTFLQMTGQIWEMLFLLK

[5] = biological target: T1, Ubiquitin-conjugating enzyme E2 N; format: functional; remark: listed apart in the source
[6] = IC50 of insulin release inhibition, rat insulinoma INS-1E line, 5 mM glucose, cell-based (AID 1117331); format: functional
[7] = anti-trypanosomal activity in BESM host cells – imaging, CA-I/72 strain, bovine embryo skeletal muscle, dry powder, dose response (AID 651885); format: functional, cell-based
[8] = blockers of HIV-1 envelope-mediated cell-cell fusion – cherry-pick, dose response (AID 652057); format: functional, cell-based
[9] = Trypanosoma cruzi replication inhibitors in host cells – cell-based, plate reader, dry powder samples, dose response (AID 651845); format: functional
[10] = T. cruzi growth inhibition in host cells, dose response, cell-based, plate reader, dry powder, set 2 (AID 652275); format: functional
[11] = HIV-1 AD8 envelope cell-cell fusion blockers – cherry-pick, dose response (AID 652062); format: functional, cell-based;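 also: luciferase signal from cell-cell fusion driven by HIV-1 clade B AD8 Env; potency is for inhibitors of fusion seen as a drop in luminescence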
[12] = cytotoxicity toward HCT116 cells – cell-based, CellTiter-Glo luminescence, IC50, dose response (AID 1117332); format: functional; conditions: HCT-116
[13] = rise of 4N DNA cells, HeLa – IC50, dose response (AID 1117351); format: functional, cell-based
[14] = SNU-C1 cell viability reduction, dose response, CellTiter-Glo luminescence (AID 1117323); format: functional, cell-based
[15] = RKO cell viability reduction, dose response, CellTiter-Glo luminescence (AID 1117322); format: functional
[16] = cytotoxicity toward HT-29 cells – cell-based, CellTiter-Glo luminescence, IC50, dose response (AID 1117330); format: functional
[17] = CellTiter-Glo luminescence survival assay, SW480 colon tumor line, concentration-response curve, half-maximal inhibitory concentration (AID 1117338); format: functional
[18] = cytotoxicity toward Colo320 cells – cell-based, CellTiter-Glo luminescence, IC50, dose response (AID 1117334); format: functional; conditions: COLO 320
[19] = Reduced DLD-1 viability, concentration-response, CellTiter-Glo luminescence (AID 1117352); format: functional
[20] = HCT116 cell viability decrease, GSK3B pretreatment – CellTiter-Glo, IC50, dose response (AID 1117339); format: functional; conditions: HCT-116
[21] = rise of 2N DNA cells, HeLa – IC50, dose response (AID 1117349); format: functional, cell-based
[22] = viability loss in Vero cells – cytotoxicity control for Vif-APOBEC3G degradation inhibitor project, dose response (AID 1117358); format: functional; conditions: Vero
[23] = biological target: T3, Protein skinhead-1 (Caenorhabditis elegans, UniProt P34707); format: functional
T3 sequence (P34707 whole entry): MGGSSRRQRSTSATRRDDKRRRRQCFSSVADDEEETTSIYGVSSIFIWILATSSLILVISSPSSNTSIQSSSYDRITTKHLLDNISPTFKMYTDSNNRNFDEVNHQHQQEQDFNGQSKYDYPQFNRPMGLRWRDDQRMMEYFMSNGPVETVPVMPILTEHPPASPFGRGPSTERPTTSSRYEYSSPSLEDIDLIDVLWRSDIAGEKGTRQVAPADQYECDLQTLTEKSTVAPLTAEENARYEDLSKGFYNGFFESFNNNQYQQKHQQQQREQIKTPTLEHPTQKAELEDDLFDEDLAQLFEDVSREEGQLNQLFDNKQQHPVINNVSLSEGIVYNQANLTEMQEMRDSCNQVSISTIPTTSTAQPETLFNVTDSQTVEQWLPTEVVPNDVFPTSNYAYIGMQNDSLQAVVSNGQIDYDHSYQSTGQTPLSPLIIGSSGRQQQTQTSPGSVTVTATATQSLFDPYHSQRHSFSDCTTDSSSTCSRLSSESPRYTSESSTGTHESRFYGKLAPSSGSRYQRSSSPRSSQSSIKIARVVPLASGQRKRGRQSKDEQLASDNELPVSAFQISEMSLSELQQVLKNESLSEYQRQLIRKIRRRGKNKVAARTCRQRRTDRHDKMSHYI

[24] = lung carcinoma cell viability loss – CellTiter-Glo luminescence, dry powder, set 17, dose response (AID 1117284); format: functional, cell-based; conditions: A549
[25] = biological target: NADPH oxidase 1 (Homo sapiens, UniProt Q9Y5S8); experiment: Late-stage luminescence-based cell-based dose response assay to identify inhibitors of NADPH oxidase 1 (NOX1): Synthesized analogs.; format: functional
[26] = viability of uninfected HEp-2 cells – cell-based, HTS, cytotoxicity control for RSV inhibitor project, dose response (AID 2410); format: functional; conditions: human respiratory syncytial virus
[27] = test system: INS1; experiment: INS-1E survival protection against cytokine death – cell-based, luminescence, retest, dose response (AID 449756); format: functional; conditions: Rattus norvegicus;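 also: cell death triggered by IL-1 beta plus TNF-alpha plus IFN-gamma mixture; protective hits raise ATP signal compared with cytokine alone wells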
[28] = biological target: T4, Tyrosyl-DNA phosphodiesterase 2 (Homo sapiens, UniProt O95551); experiment: potency against TDP2 phosphodiesterase activity – biochemical, epi absorbance, IC50, dose response (AID 743297)
T4 sequence (O95551 whole entry): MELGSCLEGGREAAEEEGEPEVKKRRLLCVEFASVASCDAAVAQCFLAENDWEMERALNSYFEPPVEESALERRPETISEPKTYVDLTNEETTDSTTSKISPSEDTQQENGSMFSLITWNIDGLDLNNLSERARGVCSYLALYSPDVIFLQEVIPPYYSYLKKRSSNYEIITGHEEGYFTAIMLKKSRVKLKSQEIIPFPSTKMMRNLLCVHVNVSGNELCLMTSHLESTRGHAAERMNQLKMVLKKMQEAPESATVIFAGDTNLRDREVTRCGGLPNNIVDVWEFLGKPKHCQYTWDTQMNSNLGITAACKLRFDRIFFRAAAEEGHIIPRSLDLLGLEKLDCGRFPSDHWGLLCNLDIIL

[29] = biological target: Glutathione-S-transferase (Schistosoma japonicum, UniProt Q26513); experiment: GST-antibody interaction or FRET quenching – biochemical, TR-FRET, artefact control for Vif-APOBEC3G degradation inhibitor project, dose response (AID 1117362); format: functional
[30] = biological target: T5, Histone-lysine N-methyltransferase NSD2 (Homo sapiens, UniProt O96028); format: biochemical
T5 sequence (O96028 whole entry): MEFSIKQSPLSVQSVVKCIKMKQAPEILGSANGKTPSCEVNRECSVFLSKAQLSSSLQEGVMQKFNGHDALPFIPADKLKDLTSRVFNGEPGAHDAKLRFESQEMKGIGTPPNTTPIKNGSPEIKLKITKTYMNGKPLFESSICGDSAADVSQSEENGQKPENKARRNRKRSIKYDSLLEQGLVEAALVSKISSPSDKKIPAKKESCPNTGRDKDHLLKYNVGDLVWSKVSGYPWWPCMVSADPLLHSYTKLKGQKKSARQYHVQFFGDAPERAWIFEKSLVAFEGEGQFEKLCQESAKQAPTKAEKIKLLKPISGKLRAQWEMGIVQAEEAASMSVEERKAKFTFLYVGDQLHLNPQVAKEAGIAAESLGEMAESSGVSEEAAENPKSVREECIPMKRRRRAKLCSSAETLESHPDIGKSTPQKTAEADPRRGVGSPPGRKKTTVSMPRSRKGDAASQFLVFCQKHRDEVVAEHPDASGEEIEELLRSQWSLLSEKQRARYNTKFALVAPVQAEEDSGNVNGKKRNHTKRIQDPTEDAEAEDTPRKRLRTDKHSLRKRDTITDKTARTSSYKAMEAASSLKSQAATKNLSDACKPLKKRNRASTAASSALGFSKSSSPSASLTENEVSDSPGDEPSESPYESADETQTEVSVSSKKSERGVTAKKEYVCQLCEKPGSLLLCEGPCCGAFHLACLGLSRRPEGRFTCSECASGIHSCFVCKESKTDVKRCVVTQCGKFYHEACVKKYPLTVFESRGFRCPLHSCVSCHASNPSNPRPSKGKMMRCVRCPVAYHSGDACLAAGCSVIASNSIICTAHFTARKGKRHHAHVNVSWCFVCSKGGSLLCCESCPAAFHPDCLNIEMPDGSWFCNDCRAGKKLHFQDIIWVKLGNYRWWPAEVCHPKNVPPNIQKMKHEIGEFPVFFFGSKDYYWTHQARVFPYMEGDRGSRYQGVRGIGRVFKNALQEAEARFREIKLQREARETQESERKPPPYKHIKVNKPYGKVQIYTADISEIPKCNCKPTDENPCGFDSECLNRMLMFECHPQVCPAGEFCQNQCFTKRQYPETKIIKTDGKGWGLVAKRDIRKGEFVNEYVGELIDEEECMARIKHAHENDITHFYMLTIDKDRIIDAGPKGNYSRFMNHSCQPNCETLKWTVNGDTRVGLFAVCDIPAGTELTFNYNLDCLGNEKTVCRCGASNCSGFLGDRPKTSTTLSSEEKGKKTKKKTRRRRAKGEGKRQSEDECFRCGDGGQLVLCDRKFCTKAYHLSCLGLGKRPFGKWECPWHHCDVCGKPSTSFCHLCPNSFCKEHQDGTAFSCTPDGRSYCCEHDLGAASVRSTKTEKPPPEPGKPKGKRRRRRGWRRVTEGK

[31] = biological target: T6, Sentrin-specific protease 8 (Homo sapiens, UniProt Q96LD8); format: functional
T6 sequence (Q96LD8 whole entry): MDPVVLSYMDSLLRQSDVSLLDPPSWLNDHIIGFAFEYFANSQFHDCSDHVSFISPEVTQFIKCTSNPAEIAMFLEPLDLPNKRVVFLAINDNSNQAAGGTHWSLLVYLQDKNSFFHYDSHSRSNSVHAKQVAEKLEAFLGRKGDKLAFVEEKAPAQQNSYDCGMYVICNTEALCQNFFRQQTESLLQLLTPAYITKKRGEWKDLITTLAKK

[32] = biological target: T6, Sentrin-specific protease 8; format: functional; remark: listed apart in the source

Chain of Glutathione-S-transferase (Q26513 whole entry): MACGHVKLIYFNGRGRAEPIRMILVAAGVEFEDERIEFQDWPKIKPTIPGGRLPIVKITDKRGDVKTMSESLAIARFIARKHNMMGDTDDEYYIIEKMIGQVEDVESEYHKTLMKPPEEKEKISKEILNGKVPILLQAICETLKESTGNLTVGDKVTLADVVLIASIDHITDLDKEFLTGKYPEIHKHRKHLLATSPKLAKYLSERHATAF
Chain of NADPH oxidase 1 (Q9Y5S8 whole entry): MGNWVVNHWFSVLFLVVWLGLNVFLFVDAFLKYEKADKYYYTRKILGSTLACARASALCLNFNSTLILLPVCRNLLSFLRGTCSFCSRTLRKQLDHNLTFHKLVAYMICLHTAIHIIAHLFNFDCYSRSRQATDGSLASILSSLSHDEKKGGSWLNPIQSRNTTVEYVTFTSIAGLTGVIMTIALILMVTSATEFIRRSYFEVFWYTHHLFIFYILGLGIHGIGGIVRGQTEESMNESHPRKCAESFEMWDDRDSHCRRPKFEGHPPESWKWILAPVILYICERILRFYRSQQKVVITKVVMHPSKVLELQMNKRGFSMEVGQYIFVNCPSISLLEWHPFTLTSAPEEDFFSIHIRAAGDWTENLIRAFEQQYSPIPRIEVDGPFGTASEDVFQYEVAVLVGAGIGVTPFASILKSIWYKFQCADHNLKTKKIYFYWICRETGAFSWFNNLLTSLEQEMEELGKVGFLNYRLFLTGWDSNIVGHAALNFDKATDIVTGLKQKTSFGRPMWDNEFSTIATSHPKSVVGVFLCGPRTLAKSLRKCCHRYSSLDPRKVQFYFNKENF
Chain of Sphingosine 1-phosphate receptor 2 (O95136 whole entry): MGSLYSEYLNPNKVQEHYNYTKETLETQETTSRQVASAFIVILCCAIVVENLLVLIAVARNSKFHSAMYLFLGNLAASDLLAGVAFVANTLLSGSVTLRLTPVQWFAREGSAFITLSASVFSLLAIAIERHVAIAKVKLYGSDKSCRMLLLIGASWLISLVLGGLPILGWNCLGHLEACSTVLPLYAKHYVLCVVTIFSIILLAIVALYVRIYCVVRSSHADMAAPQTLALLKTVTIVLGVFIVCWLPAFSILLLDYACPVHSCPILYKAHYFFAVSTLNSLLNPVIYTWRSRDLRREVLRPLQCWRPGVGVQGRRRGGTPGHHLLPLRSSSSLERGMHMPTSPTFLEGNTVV

Fc1ccc(OCCn2c(=S)[nH]c3ccccc32)cc1
AC50 [1]: 55.4 µM (active)

CCC(=O)c1cc2c(C)cc(=O)oc2c(C)c1O
EC50 [2]: > 50 µM (not active)
IC50 [3]: > 20 µM (inactive)
IC50 [4]: > 20 µM (inactive)
IC50 [5]: 10.5 µM (active)

CN(C)CCN1C(=O)c2ccccc2N(C)c2ccccc21 [DIBENZEPIN HYDROCHLORIDE]
IC50 [6]: > 33.3 µM (inactive)

C[C@@H]1CN([C@H](C)CO)C(=O)c2cccc(NC(=O)c3ccncc3)c2O[C@H]1CN(C)CC1CCCCC1
IC50 [7]: 961 nM (active)
AC50 [8]: 884 nM (active)
AC50 [9]: 391 nM (active)
AC50 [10]: 303 nM (active)
AC50 [11]: 4.84 µM (active)

NC(N)=NN=C(/C=C/c1ccc([N+](=O)[O-])o1)/C=C/c1ccc([N+](=O)[O-])o1
IC50 [12]: 136 nM (active)
IC50 [13]: > 10 µM (inactive)
IC50 [14]: 1.35 µM (active)
IC50 [15]: 12.8 nM (active)
IC50 [16]: 3 nM (active)
IC50 [17]: 7.6 nM (active)
IC50 [18]: 3 nM (active)
IC50 [19]: > 20 µM (inactive)
IC50 [20]: 23.7 nM (active)
IC50 [21]: > 10 µM (inactive)

CSc1ccc(C2Nc3ccccc3-c3cc(C)nn32)cc1 (configuration not stated)
CC50 [22]: > 40 µM (active)
IC50 [23]: > 100 µM (inactive)

COc1ccc(-c2ccc(CN(C)C[C@@H]3Oc4cc(C#C[C@@H](C)O)ccc4S(=O)(=O)N([C@@H](C)CO)C[C@@H]3C)cc2)cc1
AC50 [24]: 29.8 µM (active)

Cc1ccc2c(c1)Sc1c(ccc3ccccc13)N2
IC50 [25]: 1.47 µM (active)
CC50 [26]: 47.8 µM (active)
AC50 [27]: > 260 µM (inactive)

C[n+]1cccc2cccc([O-])c21
IC50 [28]: 60 µM (inactive)
IC50 [29]: 42.6 µM (active)
AC50 [30]: 15.1 µM (active)
IC50 [31]: 1.82 µM (active)
IC50 [32]: 1.01 µM (active)
